According to publication PMC4503722, “Novel Phenotypic Outcomes Identified for a Public Collection of Approved Drugs from a Publicly Accessible Panel of Assays” (PLoS ONE, 2015):
Read-outs that look alike come from different tables or passages of the source.

What was measured:
hFLT3 = target: T1, hFLT3 (Homo sapiens, UniProt P36888); assay: Cerep LANCE kinase assay hFLT3 (S1 assay 35); format: biochemical; conditions: read-out: FLT3
T1 construct: purchased Cerep (LANCE kinase assay platform, contract assay)

RKO = assay: cells; format: cell-based
HeLa cells = assay: cells; format: cell-based; conditions: for EC50: read-out: CellCycle G2/M
hJAK2 = target: T2, hJAK2 (Homo sapiens, UniProt O60674); assay: Cerep LANCE kinase assay hJAK2 (S1 assay 33); format: biochemical; conditions: read-out: JAK2
T2 construct: purchased Cerep (LANCE kinase assay platform, contract assay)

hp70S6K1 (RPS6KB1) = target: T3, hp70S6K1 (RPS6KB1) (Homo sapiens, UniProt P23443); assay: Cerep LANCE kinase assay hp70S6K1 (S1 assay 31); format: biochemical; conditions: read-out: p70S6K1
T3 construct: purchased Cerep (LANCE kinase assay platform, contract assay)

INS-1E cells = assay: cells; format: cell-based, rat
hGSK3b = target: T4, hGSK3b (Homo sapiens, UniProt P49841); assay: Cerep LANCE kinase assay hGSK3b (S1 assay 34); format: biochemical; conditions: read-out: GSK3b
T4 construct: purchased Cerep (LANCE kinase assay platform, contract assay)

[1] = tested on: nuclear β-catenin in C2C12 cells; assay: cells; format: cell-based
[2] = tested on: HCT116 cells treated with a GSK3β inhibitor; assay: cells; format: cell-based; conditions: Homo sapiens
HT-29 = assay: cells; format: cell-based
HCT116 = assay: cells; format: cell-based
Colo320 = assay: cells; format: cell-based; conditions: Homo sapiens, COLO 320, read-out: Basal_Viability ATP Colo 320
SW480 = assay: cells; format: cell-based
[3] = tested on: endothelial tube formation in co-cultures of ECFCs and ADSCs treated with VEGF; assay: cells; format: cell-based, human
hKDR = target: T5, hKDR (Homo sapiens, UniProt P35968); assay: Cerep LANCE kinase assay hKDR (S1 assay 32); format: biochemical; conditions: read-out: KDR
T5 construct: purchased Cerep (LANCE kinase assay platform, contract assay)

DLD-1 = assay: cells; format: cell-based
NCI-H716 cells = assay: cells; format: cell-based, Human
SNU-C1 = assay: cells; format: cell-based; conditions: Homo sapiens
[4] = Homo sapiens, RKO, read-out: Basal_Viability ATP RKO
[5] = Rattus norvegicus, INS-1E, read-out: Insulin Secretion
[6] = Mus musculus, C2C12, read-out: Wnt Pathway
[7] = HCT-116, read-out: GSK3b inh pretreated_Viability ATP HCT116
[8] = Homo sapiens, HT-29, read-out: Basal_Viability ATP HT-29
[9] = Homo sapiens, HCT-116, read-out: Basal_Viability ATP HCT116
[10] = Homo sapiens, SW480, read-out: Basal_Viability ATP SW480
[11] = Homo sapiens, read-out: Anti-Angiogenesis
[12] = Homo sapiens, DLD-1, read-out: Basal_Viability ATP DLD-1
[13] = Homo sapiens, NCI-H716, read-out: GLP 1 Secretion
[14] = Rattus norvegicus, INS-1E; read-out: Ins. sec. EC50
[15] = Mus musculus, C2C12; read-out: Wnt pot. EC50
[16] = HCT-116, read-out: HCT-116 (GSK3β) viab. IC50, Table 2, GSK3β inhibitor LY2090314 20 nM, 72 h, Cell TiterGlo, 20 coded
[17] = HCT-116, GSK3b inhibitor pretreated, read-out: GSK3b inh pretreated_Viability ATP HCT116
[18] = Homo sapiens, IC50 / EC50; endothelial tube area, ADSC/ECFC co-culture; read-out: Anti-Angiogenesis
[19] = Homo sapiens; read-out: Anti-Angio IC50
[20] = Homo sapiens, NCI-H716; read-out: GLP1 sec. EC50

T3 sequence (P23443 whole entry): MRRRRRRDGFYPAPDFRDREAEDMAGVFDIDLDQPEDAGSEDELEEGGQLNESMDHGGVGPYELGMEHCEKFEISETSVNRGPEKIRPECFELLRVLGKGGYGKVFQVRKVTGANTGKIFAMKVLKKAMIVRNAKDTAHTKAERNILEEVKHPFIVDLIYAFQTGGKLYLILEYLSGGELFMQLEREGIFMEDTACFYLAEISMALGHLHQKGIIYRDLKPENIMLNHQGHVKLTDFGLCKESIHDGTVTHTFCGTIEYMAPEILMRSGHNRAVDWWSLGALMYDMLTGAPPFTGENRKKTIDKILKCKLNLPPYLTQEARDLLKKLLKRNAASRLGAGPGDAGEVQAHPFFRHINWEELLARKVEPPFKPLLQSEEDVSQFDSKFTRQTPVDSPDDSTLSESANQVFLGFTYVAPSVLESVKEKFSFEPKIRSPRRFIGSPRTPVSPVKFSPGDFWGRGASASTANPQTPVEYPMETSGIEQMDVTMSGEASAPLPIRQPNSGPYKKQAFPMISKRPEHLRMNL
T1 sequence (P36888 27-993): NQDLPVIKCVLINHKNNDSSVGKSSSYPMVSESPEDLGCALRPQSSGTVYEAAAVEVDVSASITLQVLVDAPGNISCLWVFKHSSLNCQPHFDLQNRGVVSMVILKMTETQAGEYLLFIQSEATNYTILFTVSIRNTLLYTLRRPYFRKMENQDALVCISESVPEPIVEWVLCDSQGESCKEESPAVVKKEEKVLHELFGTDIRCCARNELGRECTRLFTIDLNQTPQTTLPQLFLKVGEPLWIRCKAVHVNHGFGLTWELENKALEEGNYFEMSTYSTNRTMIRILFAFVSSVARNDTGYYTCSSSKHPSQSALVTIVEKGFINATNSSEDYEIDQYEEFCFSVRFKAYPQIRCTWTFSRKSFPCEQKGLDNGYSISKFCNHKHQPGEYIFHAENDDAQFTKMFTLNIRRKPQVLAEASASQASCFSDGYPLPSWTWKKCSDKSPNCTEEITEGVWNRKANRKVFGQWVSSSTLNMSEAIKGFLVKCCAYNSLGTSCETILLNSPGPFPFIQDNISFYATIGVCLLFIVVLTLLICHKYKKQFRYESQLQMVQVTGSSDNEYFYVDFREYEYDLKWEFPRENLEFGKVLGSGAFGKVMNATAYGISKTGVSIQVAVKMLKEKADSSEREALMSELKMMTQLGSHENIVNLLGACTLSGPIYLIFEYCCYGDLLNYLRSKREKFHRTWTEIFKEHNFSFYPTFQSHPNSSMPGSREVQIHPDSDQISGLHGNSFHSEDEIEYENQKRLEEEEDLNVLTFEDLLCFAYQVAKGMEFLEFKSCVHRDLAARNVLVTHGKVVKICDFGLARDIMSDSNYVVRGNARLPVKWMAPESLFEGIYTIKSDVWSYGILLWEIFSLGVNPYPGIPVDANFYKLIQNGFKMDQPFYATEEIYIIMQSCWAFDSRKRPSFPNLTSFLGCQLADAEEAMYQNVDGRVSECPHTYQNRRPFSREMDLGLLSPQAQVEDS
T5 sequence (P35968 20-1356): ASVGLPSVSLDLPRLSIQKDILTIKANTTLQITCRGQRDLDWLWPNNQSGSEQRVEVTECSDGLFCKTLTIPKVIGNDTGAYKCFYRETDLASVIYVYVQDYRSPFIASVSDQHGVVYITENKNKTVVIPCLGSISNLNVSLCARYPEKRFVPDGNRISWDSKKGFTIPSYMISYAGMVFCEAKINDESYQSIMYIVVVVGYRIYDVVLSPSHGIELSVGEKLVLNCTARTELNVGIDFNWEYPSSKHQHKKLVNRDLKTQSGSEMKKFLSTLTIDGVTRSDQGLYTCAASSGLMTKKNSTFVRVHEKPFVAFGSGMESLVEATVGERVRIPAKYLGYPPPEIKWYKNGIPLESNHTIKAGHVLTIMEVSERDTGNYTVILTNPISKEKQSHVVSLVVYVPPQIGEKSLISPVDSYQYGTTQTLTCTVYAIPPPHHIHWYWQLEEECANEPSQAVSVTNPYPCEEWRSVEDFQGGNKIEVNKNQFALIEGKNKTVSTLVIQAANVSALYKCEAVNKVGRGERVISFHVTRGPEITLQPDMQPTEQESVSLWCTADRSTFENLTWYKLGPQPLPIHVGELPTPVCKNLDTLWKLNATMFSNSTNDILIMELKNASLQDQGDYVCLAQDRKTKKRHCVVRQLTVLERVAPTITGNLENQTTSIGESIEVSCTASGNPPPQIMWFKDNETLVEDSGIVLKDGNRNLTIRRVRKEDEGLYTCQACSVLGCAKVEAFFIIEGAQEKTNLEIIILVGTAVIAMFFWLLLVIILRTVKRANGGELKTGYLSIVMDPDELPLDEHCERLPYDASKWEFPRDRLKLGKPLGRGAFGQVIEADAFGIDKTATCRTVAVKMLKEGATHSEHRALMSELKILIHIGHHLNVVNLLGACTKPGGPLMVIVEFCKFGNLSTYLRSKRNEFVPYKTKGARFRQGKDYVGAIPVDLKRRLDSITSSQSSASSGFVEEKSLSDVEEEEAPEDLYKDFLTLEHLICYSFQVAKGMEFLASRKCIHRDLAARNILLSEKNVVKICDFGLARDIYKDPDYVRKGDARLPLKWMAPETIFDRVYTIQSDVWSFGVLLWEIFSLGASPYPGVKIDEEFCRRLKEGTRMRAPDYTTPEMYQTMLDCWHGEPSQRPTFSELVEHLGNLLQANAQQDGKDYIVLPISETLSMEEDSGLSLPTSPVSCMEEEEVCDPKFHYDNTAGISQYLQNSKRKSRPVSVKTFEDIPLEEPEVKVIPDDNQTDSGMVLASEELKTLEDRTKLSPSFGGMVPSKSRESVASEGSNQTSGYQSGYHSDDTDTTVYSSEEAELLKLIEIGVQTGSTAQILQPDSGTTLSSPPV
T2 sequence (O60674 whole entry): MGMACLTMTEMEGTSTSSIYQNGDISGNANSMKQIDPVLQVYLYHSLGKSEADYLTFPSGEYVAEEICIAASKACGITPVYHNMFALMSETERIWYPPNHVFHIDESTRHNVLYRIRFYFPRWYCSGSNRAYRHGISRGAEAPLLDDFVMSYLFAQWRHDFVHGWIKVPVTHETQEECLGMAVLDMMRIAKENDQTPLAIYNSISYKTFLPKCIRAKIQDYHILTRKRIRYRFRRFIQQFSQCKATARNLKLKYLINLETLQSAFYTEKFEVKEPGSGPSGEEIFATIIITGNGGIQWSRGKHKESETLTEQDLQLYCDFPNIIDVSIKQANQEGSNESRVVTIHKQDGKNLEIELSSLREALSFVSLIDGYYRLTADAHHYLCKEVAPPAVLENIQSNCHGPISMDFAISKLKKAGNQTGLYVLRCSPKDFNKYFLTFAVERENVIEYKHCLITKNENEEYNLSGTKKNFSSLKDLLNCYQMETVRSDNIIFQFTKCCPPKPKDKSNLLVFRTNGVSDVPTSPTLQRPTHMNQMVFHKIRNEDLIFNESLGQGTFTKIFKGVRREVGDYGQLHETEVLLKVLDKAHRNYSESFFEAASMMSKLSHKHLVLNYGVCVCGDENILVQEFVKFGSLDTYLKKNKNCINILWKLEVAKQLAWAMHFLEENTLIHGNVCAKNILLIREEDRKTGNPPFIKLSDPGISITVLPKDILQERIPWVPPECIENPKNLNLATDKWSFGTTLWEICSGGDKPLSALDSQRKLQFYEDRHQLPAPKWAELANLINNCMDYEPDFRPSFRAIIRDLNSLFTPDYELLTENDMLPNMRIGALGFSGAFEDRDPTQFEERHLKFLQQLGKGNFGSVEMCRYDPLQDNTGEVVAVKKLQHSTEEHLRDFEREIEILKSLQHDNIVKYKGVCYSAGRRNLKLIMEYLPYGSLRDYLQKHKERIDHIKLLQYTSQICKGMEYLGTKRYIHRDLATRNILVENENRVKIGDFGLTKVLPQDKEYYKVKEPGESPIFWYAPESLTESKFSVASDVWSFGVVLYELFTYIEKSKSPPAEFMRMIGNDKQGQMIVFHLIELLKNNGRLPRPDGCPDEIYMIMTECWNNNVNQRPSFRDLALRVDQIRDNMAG
T4 sequence (P49841 whole entry): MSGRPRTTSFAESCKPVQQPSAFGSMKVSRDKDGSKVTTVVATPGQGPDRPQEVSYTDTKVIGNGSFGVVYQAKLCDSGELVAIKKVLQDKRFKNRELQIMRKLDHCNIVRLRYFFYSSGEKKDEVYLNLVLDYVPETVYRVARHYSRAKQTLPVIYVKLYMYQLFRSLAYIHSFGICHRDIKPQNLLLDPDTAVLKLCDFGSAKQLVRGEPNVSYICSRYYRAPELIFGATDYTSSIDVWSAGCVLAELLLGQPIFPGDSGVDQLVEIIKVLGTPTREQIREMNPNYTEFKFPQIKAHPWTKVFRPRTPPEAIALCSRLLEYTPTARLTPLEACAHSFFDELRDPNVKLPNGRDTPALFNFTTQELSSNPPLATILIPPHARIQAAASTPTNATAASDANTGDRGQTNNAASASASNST

| SMILES | IC50 (hFLT3) [nM] | IC50 (RKO; [4]) [nM] | EC50 (HeLa cells; Homo sapiens, HeLa) [nM] | IC50 (hJAK2) [nM] | IC50 (hp70S6K1 (RPS6KB1)) [nM] | EC50 (INS-1E cells; [5]) [nM] | IC50 (hGSK3b) [nM] | EC50 [1, 6] [nM] | IC50 [2, 7] [nM] | IC50 (HT-29; [8]) [nM] | IC50 (HCT116; [9]) [nM] | IC50 (SW480; [10]) [nM] | IC50 [3, 11] [nM] | IC50 (hKDR) [nM] | IC50 (DLD-1; [12]) [nM] | EC50 (NCI-H716 cells; [13]) [nM] | also measured |
| --- | --- | --- | --- | --- | --- | --- | --- | --- | --- | --- | --- | --- | --- | --- | --- | --- | --- |
| CC(C)(C)[C@H]1CC[C@H](CC2=C(O)C(=O)c3ccccc3C2=O)CC1 [Buparvaquone] | > 20000 | 133 | > 10000 | > 20000 | > 20000 | > 10000 | > 20000 | > 10000 | 66.7 | 3390 | 227 | 205 | 1960 | > 20000 | 218 | > 10000 | IC50 (Colo320): 255 nM |
| COC(=O)Nc1nc2ccc([S+]([O-])c3ccccc3)cc2[nH]1 (stereo not drawn) [Oxfendazole] | – | 1 | 331 | – | – | > 10000 | – | 468 | 1 | > 20000 | 1 | > 20000 | 288 | – | > 20000 | > 10000 | IC50 (hFLT3; kinase assay): > 20000 nM; IC50 (hJAK2; kinase assay): > 20000 nM; IC50 (hp70S6K1 (RPS6KB1); kinase assay): > 20000 nM; IC50 (hGSK3b; kinase assay): > 20000 nM; IC50 (hKDR; kinase assay): > 20000 nM |
| CC[C@]1(O)C[C@@H]2CN(CCc3c([nH]c4ccccc34)[C@@](C(=O)OC)(c3cc4c(cc3OC)N(C)[C@H]3[C@@](O)(C(=O)OC)[C@H](OC(C)=O)[C@]5(CC)C=CCN6CC[C@]43[C@@H]65)C2)C1 [Vinblastine] | > 20000 | 1 | 3.2 | > 20000 | > 20000 | > 10000 | > 20000 | 5.8 | 1 | 1 | – | – | 2.3 | > 20000 | – | > 10000 | EC50 (HeLa cells): 4.83 nM; EC50 ([1]; read-out: Wnt Pathway): 3.5 nM; IC50 (Colo320): 1 nM; IC50 ([3]; read-out: Anti-Angiogenesis): 2.6 nM |
| CC(C)C[C@H](NC(=O)[C@H](CCc1ccccc1)NC(=O)CN1CCOCC1)C(=O)N[C@@H](Cc1ccccc1)C(=O)N[C@@H](CC(C)C)C(=O)[C@@]1(C)CO1 [carfilzomib, reference compound] | > 20000 | – | – | > 20000 | > 20000 | – | > 20000 | – | – | – | – | – | – | > 20000 | – | – | IC50 (RKO; Homo sapiens, RKO; Table 2; 72 h, Cell TiterGlo, non-adherent; 20 coded; read-out: RKO viab. IC50): 4 nM; IC50 (RKO; Homo sapiens, RKO; read-out: Basal_Viability ATP RKO): 3.94 nM; EC50 (HeLa cells; Homo sapiens, HeLa, IC50 / EC50, HeLa): > 10000 nM; EC50 (INS-1E cells; [14]): > 10000 nM; EC50 ([1]; Mus musculus, C2C12, IC50 / EC50; C2C12 beta-catenin translocation; read-out: Wnt Pathway): 15.2 nM; EC50 [1, 15]: 15 nM; IC50 [2, 16]: 2 nM; IC50 [2, 17]: 1.73 nM; IC50 (HT-29; Homo sapiens, HT-29; Table 2; 72 h, Cell TiterGlo, non-adherent; 20 coded; read-out: HT-29 viab. IC50): 3 nM; IC50 (HT-29; Homo sapiens, HT-29; read-out: Basal_Viability ATP HT-29): 3.18 nM; IC50 (HCT116; Homo sapiens, HCT-116, 72 h, read-out: HCT-116 viab. IC50, Table 2; basal; 72 h, Cell TiterGlo, non-adherent; 20 coded): 6 nM; IC50 (HCT116; Homo sapiens, HCT-116, basal; read-out: Basal_Viability ATP HCT116): 5.58 nM; IC50 [3, 18]: 20.4 nM; IC50 [3, 19]: 20 nM; IC50 (SNU-C1; SNU-C1, 72 h, Table 2, 72 h, Cell TiterGlo, non-adherent, 20 coded, read-out: SNU-C1 viab. IC50): 1 nM; IC50 (SNU-C1; SNU-C1, basal, read-out: Basal_Viability ATP SNU-C1): 1.47 nM; IC50 (DLD-1; Homo sapiens, DLD-1, 72 h, Table 2; 72 h, Cell TiterGlo, non-adherent; 20 coded; read-out: DLD-1 viab. IC50): 7 nM; IC50 (DLD-1; Homo sapiens, DLD-1, basal; read-out: Basal_Viability ATP DLD-1): 6.96 nM; EC50 (NCI-H716 cells; [20]): > 10000 nM |
| CCc1nc(N)nc(N)c1-c1ccc(Cl)cc1 [pyrimethamine, reference compound] | – | – | > 10000 | – | – | – | – | 67.7 | – | – | 18200 | 12500 | – | – | – | – | IC50 (hFLT3; kinase assay): > 20000 nM; IC50 (hJAK2; kinase assay): > 20000 nM; IC50 (hp70S6K1 (RPS6KB1); kinase assay): > 20000 nM; EC50 (INS-1E cells; Rattus norvegicus, INS-1E, read-out: Ins. sec. EC50): > 10000 nM; IC50 (hGSK3b; kinase assay): > 20000 nM; EC50 ([1]; Mus musculus, C2C12, read-out: Wnt pot. EC50): 68 nM; IC50 ([2]; HCT-116, 72 h, read-out: HCT-116 (GSK3β) viab. IC50): > 20000 nM; IC50 (HCT116; Homo sapiens, HCT-116, 72 h, read-out: HCT-116 viab. IC50): 18200 nM; IC50 (SW480; Homo sapiens, SW480, 72 h, read-out: SW480 viab. IC50): 12500 nM; IC50 ([3]; Homo sapiens, read-out: Anti-Angio IC50): > 10000 nM; IC50 (hKDR; kinase assay): > 20000 nM; IC50 (DLD-1; Homo sapiens, DLD-1, 72 h, read-out: DLD-1 viab. IC50): > 20000 nM; EC50 (NCI-H716 cells; Homo sapiens, NCI-H716, read-out: GLP1 sec. EC50): > 10000 nM |
| C=C(C)[C@H]1Cc2c(ccc3c2O[C@@H]2COc4cc(OC)c(OC)cc4[C@@H]2C3=O)O1 [rotenone, reference compound] | > 20000 | – | – | > 20000 | > 20000 | – | > 20000 | – | – | – | – | – | – | > 20000 | – | – | G2/M IC50 / EC50 (HeLa cells): 310 nM; EC50 (HeLa cells; Homo sapiens, IC50 / EC50, HeLa): 311 nM; EC50 (INS-1E cells; [14]): > 10000 nM; EC50 [1, 15]: 250 nM; EC50 ([1]; Mus musculus; IC50 / EC50; C2C12 beta-catenin translocation; read-out: Wnt Pathway): 254 nM; IC50 [2, 16]: 67 nM; IC50 [2, 17]: 66.7 nM; IC50 (HCT116; Homo sapiens, HCT-116, read-out: HCT-116 viab. IC50; Table 2; basal; 72 h, Cell TiterGlo, non-adherent; 20 coded): 1200 nM; IC50 (HCT116; Homo sapiens, HCT-116; read-out: Basal_Viability ATP HCT116): 1180 nM; IC50 (SW480; Homo sapiens, SW480; Table 2; 72 h, Cell TiterGlo, non-adherent; 20 coded; read-out: SW480 viab. IC50): 160 nM; IC50 (SW480; Homo sapiens, SW480; read-out: Basal_Viability ATP SW480): 162 nM; IC50 [3, 18]: 25.7 nM; IC50 [3, 19]: 26 nM; IC50 (DLD-1; Homo sapiens, DLD-1; Table 2; 72 h, Cell TiterGlo, non-adherent; 20 coded; read-out: DLD-1 viab. IC50): 350 nM; IC50 (DLD-1; Homo sapiens, DLD-1; read-out: Basal_Viability ATP DLD-1): 350 nM; EC50 (NCI-H716 cells; [20]): > 10000 nM |
| CC[C@]1(O)C[C@H]2CN(CCc3c([nH]c4ccccc34)[C@@](C(=O)OC)(c3cc4c(cc3OC)N(C=O)[C@H]3[C@@](O)(C(=O)OC)[C@H](OC(C)=O)[C@]5(CC)C=CCN6CC[C@]43[C@@H]65)C2)C1 [vincristine] | > 20000 | – | 5.9 | > 20000 | > 20000 | > 10000 | > 20000 | 4 | 66.7 | – | 126 | 3080 | 6.5 | > 20000 | 786 | > 10000 | – |
